# Measurements reported in paper PMC10290043, “Pharmacokinetics, safety, and antitumor activity of talazoparib monotherapy in Chinese patients with advanced solid tumors” (Investigational New Drugs, 2023).
# Entries after “also recorded” stand apart in the source; their conditions may differ. Where two headings read alike, the source gives them in different places.
# Tests used:
# [1] = Safety: treatment-emergent adverse events, NCT04635631; format: in vivo, human; settings: for Any AE: safety population N=15, 1 mg QD
# Text: AE reporting included data up to 28 days after last dose of study drug or to start of new anticancer drug therapy Day -1 (whichever came first). For AEs, Medical Dictionary for Regulatory Activities (MedDRA), version 24.0, coding was applied.
# All patients who had received at least 1 dose of talazoparib were included in the safety and efficacy analysis sets. All treated patients with at least 1 PK concentration in the single-dose and/or multiple-dose PK part were included in the PK concentration analysis set, and all treated patients with at least 1 of the PK parameters of primary interest in the single-dose and/or multiple-dose PK part were included in the PK parameter analysis set. All patients in the PK parameter analysis set who completed both the single-dose PK and multiple-dose PK parts without major protocol deviations were included in the PK evaluable analysis set.
# [2] = Japanese patients, cited from earlier work; for Cmax / Tmax: ref Naito et al 2021 [16]
smiles,measurement,setting,value
Cn1ncnc1[C@H]1c2n[nH]c(=O)c3cc(F)cc(c23)N[C@@H]1c1ccc(F)cc1 [talazoparib],Patients with 1 or more dose reduction due to treatment-related AEs,[1]; 3/15 patients,Twenty percent
same,Any-grade treatment-related TEAE: anemia,[1]; N=15,46.7%
same,Any-grade treatment-related TEAE: decreased lymphocyte count,[1]; N=15,33.3%
same,Any-grade treatment-related TEAE: decreased neutrophil count,[1]; N=15,46.7%
same,Any-grade treatment-related TEAE: decreased platelet count,[1]; N=15,33.3%
same,Any-grade treatment-related TEAE: decreased white blood cell count,[1]; N=15,46.7%
same,Any-grade treatment-related TEAE: elevated alanine aminotransferase,[1]; N=15,33.3%
same,Any-grade treatment-related TEAE: elevated aspartate aminotransferase,[1]; N=15,33.3%
same,Patients permanently discontinued because of treatment-related decreased neutrophil count,[1]; N=15,6.7%
same,Patients with dose interruptions due to all-causality AEs,[1]; N=15,20.0%
same,Patients with dose interruptions due to treatment-related AEs,[1]; N=15,13.3%
same,Patients with grade 3 treatment-related TEAEs,[1]; N=15,20%
same,Patients with grade 4 treatment-related TEAEs,[1]; N=15,13.3%
same,Patients with serious all-causality TEAEs,[1]; N=15,13.3%
same,Patients with serious treatment-related TEAEs,[1]; N=15,13.3%
same,Treatment-related grade 3 or 4 TEAE: decreased neutrophil count,[1]; N=15,20%
same,Treatment-related grade 3 or 4 TEAE: decreased platelet count,[1]; N=15,20%
same,Patients with grade 3–4 treatment-related AEs,"[1]; N=15, in words",One-third
same,Treatment-related grade 3 or 4 TEAE: anemia,"[1]; N=15, no grade 4",20%
same,Treatment-related grade 3 or 4 TEAE: hyponatremia,"[1]; N=15, no grade 4",6.7%
same,Treatment-related grade 3 or 4 TEAE: neutropenia,"[1]; N=15, no grade 4",6.7%
same,Grade 5 TEAEs,"[1]; all-causality or treatment-related, N=15",No grade 5 all-causality or treatment-related TEAEs; also recorded: no grade 5 TEAEs
same,AEs leading to discontinuation,"[1]; all-causality, N=15",1 (6.7) n (%)
same,AEs leading to dose interruption,"[1]; all-causality, N=15",3 (20.0) n (%)
same,AEs leading to dose reduction,"[1]; all-causality, N=15",3 (20.0) n (%)
same,Grade 3 or 4 AE,"[1]; all-causality, N=15",9 (60.0) n (%)
same,Grade 3 or 4 AE: Anemia,"[1]; all-causality, N=15",3 (20.0) n (%)
same,Grade 3 or 4 AE: Gamma-glutamyltransferase increased,"[1]; all-causality, N=15",4 (26.7%) n (%)
same,Grade 3 or 4 AE: Neutrophil count decreased,"[1]; all-causality, N=15",3 (20.0) n (%)
same,Grade 3 or 4 AE: Platelet count decreased,"[1]; all-causality, N=15",3 (20.0) n (%)
same,Grade 5 AE (Death due to AE),"[1]; all-causality, N=15",0 n (%)
same,Patients with any SAE,"[1]; all-causality, N=15",2 (13.3) n (%)
same,SAE: Anemia,"[1]; all-causality, N=15",1 (6.7) n (%)
same,SAE: Hypernatremia,"[1]; all-causality, N=15",1 (6.7) n (%)
same,SAE: Hyponatremia,"[1]; all-causality, N=15",1 (6.7) n (%)
same,SAE: Neutrophil count decreased,"[1]; all-causality, N=15",1 (6.7) n (%)
same,SAE: Platelet count decreased,"[1]; all-causality, N=15",1 (6.7) n (%)
same,Any AE,[1]; all-causality,14 (93.3) n (%)
same,Patients with all-causality TEAEs,[1]; safety population N=15,93.3%
same,Patients with treatment-related TEAEs,[1]; safety population N=15,86.7%
same,AEs leading to discontinuation,"[1]; treatment-related, N=15",1 (6.7) n (%)
same,AEs leading to dose interruption,"[1]; treatment-related, N=15",2 (13.3) n (%)
same,AEs leading to dose reduction,"[1]; treatment-related, N=15",3 (20.0) n (%)
same,Grade 3 or 4 AE,"[1]; treatment-related, N=15",5 (33.3) n (%)
same,Grade 3 or 4 AE: Anemia,"[1]; treatment-related, N=15",3 (20.0) n (%)
same,Grade 3 or 4 AE: Gamma-glutamyltransferase increased,"[1]; treatment-related, N=15",0 n (%)
same,Grade 3 or 4 AE: Neutrophil count decreased,"[1]; treatment-related, N=15",3 (20.0) n (%)
same,Grade 3 or 4 AE: Platelet count decreased,"[1]; treatment-related, N=15",3 (20.0) n (%)
same,Grade 5 AE (Death due to AE),"[1]; treatment-related, N=15",0 n (%)
same,Patients with any SAE,"[1]; treatment-related, N=15",2 (13.3) n (%)
same,SAE: Anemia,"[1]; treatment-related, N=15",1 (6.7) n (%)
same,SAE: Hypernatremia,"[1]; treatment-related, N=15",0 n (%)
same,SAE: Hyponatremia,"[1]; treatment-related, N=15",1 (6.7) n (%)
same,SAE: Neutrophil count decreased,"[1]; treatment-related, N=15",1 (6.7) n (%)
same,SAE: Platelet count decreased,"[1]; treatment-related, N=15",1 (6.7) n (%)
same,Any AE,[1]; treatment-related,13 (86.7) n (%)
same,AUCtau,"[2]; multiple dose 1 mg QD oral, geometric mean (geometric %CV), ref Naito et al 2021",244.7 (21) ng.h/mL
same,Cmax,"[2]; multiple dose 1 mg QD oral, geometric mean (geometric %CV)",32.84 ng/mL
same,Tmax,"[2]; multiple dose 1 mg QD oral, median (range)",1.03 (0.7–1.9) h
same,Rac,"[2]; multiple dose 1 mg QD, median (range), ref Naito et al 2021",2.32 (1.70–8.28)
same,Cmax,"[2]; single dose 1 mg oral, N=6, geometric mean (geometric %CV)",13.78 ng/mL
same,t1/2,"[2]; single dose 1 mg oral, arithmetic mean ± standard deviation, ref Naito et al 2021",50.73 ± 10.1 h
same,AUCinf,"[2]; single dose 1 mg oral, geometric mean (geometric %CV), ref Naito et al 2021",199.7 (9) ng.h/mL
same,Tmax,"[2]; single dose 1 mg oral, median (range)",0.97 (0.5–2.0) h
